According to patent US7888504B2, “Glucokinase activators and methods of using same” (Bristol-Myers Squibb Company, priority 2006, dated 2011):
pEC50: −log10 of the molar value.

Target: T1, Human Glucokinase (Homo sapiens, UniProt P35557)
T1 construct: Full-length human hepatic GK (untagged); made in house; host or cells: E. coli BL21 STAR (DE3)pLysS
T1 sequence (P35557 1-466 isoform P35557-2): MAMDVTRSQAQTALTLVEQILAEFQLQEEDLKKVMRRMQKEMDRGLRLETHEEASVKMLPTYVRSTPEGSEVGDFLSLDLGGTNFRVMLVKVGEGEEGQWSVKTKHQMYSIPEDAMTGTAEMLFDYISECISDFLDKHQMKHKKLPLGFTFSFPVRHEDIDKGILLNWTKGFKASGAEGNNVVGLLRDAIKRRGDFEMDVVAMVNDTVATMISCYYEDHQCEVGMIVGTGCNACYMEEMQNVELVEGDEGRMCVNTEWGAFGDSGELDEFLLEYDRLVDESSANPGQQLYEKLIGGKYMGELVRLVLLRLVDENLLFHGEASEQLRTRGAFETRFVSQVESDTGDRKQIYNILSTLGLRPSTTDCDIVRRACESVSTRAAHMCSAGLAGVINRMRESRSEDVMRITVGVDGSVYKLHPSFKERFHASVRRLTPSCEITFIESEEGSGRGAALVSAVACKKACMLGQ
Assay: tandem Glucokinase activation assay (uncoupled)
Assay type: biochemical
Settings: 12 mM glucose; human full-length GK 15 nM
Method: A tandem Glucokinase activation assay (uncoupled) was used to assess the activity of glucokinase (GK) in the presence of GK activator compounds. The below-described tandem assay protocol was followed using a range of activator compound concentrations from 0 to 100 µM at 5 and 12 mM concentrations of glucose. Human full-length GK (15 nM) was incubated with 5 or 12 mM glucose in 384 well black microtiter plates with a clear bottom. To initiate the GK reaction, magnesium-ATP (3 mM final concentration) was added to the protein in buffer, under the final buffer conditions of 25 mM HEPES buffer, pH 7.1, containing 1 mM DTT (dithiothreitol) and […]. The total reaction volume was 20 μL. The reaction was allowed to proceed for ten minutes and was then quenched with 5 μL EDTA (ethylenediamine tetra-acetic acid; 45 mM final). The components of the detection reaction, ThioNAD (thio-nicotinamide adenine dinucleotide) and G6PDH (glucose-6-phosphate dehydrogenase) (final concentrations of 650 μM and 3.33 Units, respectively), were then added together in a volume of 25 μL, and a total volume of 50 μL. Absorbance was read and activation calculated as a percentage of background activity, ie., GK in the presence of DMSO, with background glucose-6-phosphate subtracted. Absorbance measurements were made at 405 nm on a Spectramax Plus 384 absorbance plate reader (Molecular Devices). Background glucose-6-phosphate was determined by pre-quenching GK with EDTA prior to reaction initiation with ATP.
Expression and Purification of Human GK
Full-length human hepatic GK (untagged) as expressed in BL21 STAR (DE3)pLysS cells (Invitrogen) at 25° C. as described by Mookhtiar et al.^1 The protein was purified essentially as described by Lange^2 with a slight modification. Cell pellets were lysed via three rounds of freezing and thawing, centrifuged at 15000 g for clarification, and precipitated with 40-65% (NH4)2SO4. The resulting pellet was re-suspended in buffer dialyzed, and applied directly to a Q-Sepharose (Sigma) column followed by elution with a linear 100-600 mM KCl gradient. GK containing fractions were pooled, dialyzed overnight vs. 25 mM HEPES pH 7.2/1 mM MgCl2/1 mM EDTA/0.1 M KCl/1 mM DTT, then dialyzed again with the same buffer with 10% glycerol added. ^1Mookhtiar, K. A., Kalinowski, S. S., Brown, K. S., Tsay, Y. H., Smith-Monroy, C., and Robinson, G. W. (1996) “Heterologous expression and characterization of rat liver glucokinase regulatory protein”, Diabetes 45:1670-1677.^2Lange, A. J., Xu, L. Z., Van Poelwijk, F., Lin, K., Granner, D. K., and Pilkis, S. J. (1991) “Expression and site-directed mutagenesis of hepatic glucokinase”, Biochem. J., 277:159-163.

Compound	pEC50
CS(=O)(=O)c1ccc([C@@H](CC2CCCC2)C(=O)Nc2ncc(Oc3cncc(C(=O)O)c3)s2)cc1 [Example 8]	6.12
O=C(Nc1ncc(Oc2cccc(C(=O)N3CCC3)c2)s1)[C@H](CC1CCOCC1)c1ccc(S(=O)(=O)C2CC2)cc1 [Example 18]	7.41
O=C(Nc1ncc(Oc2cccc(C(=O)N3CC(O)C3)c2)s1)[C@H](CC1CCOCC1)c1ccc(S(=O)(=O)C2CC2)cc1 [Example 19]	7.42
CS(=O)(=O)c1ccc([C@@H](CC2CCCC2)C(=O)Nc2ncc(Oc3ccc(C#N)cc3)s2)cc1 [Example 20]	5.06
CS(=O)(=O)c1ccc([C@@H](CC2CCCC2)C(=O)Nc2ncc(Oc3cccc(C(N)=O)c3)s2)cc1 [Example 21]	6.07
CS(=O)(=O)c1ccc([C@@H](CC2CCCC2)C(=O)Nc2ncc(Oc3ccccc3C(N)=O)s2)cc1 [Example 24]	5.40

System: DIO mice
Assay: Oral glucose tolerance test (OGTT) in DIO mice
Assay type: in vivo
Settings: male DIO C57BL/6J mice, 60 mg/kg oral, given 60 min before 2 g/kg glucose, ΔAUC 0-120 min
Method: In Vivo Studies: Oral Glucose Tolerance Test (OGTT)
Oral glucose tolerance tests were carried out on male DIO (diet-induced obese C57BL/6J mice fed a high fat diet (60% kcal from fat) for 26 weeks prior to experimentation. Mice were fasted overnight before use for experiments. A test compound or vehicle (10% dimethyl acetamide+10% ethanol+10% Cremophore+70% water) was given orally 60 min before oral administration of a glucose solution at a dose of 2 g/kg body weight (oral glucose tolerance test; OGTT). Blood glucose levels were measured from tail-bled samples taken at different time points before and after administration of glucose (time course of 2 hours). A time curve of the blood glucose was generated and the change from baseline area-under-the curve (ΔAUC) from 0-120 min was calculated (the time glucose administration being time zero).

Compound	reduction of glucose AUC levels in an OGTT
CS(=O)(=O)c1ccc([C@@H](CC2CCCC2)C(=O)Nc2ncc(Oc3ccc(C(=O)O)cc3)s2)cc1 [Example 9]	37%
